In patent US7345070B2, “Peroxisome proliferator activated receptor agonists” (Eli Lilly and Company, priority 2000, dated 2008):

Key:
huPPARα = experiment: Cotransfection assay in CV-1 cells, huPPARα; format: cell-based, human; conditions: GAL4 chimeric system, relative to PPARα agonist reference molecule
Summary of the method: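 Binding: SPA displacement of tritiated PPARα or PPARγ agonist, giving IC50. Cotransfection: CV-1 cells with CMV-driven PPAR and RXRα, luciferase reporter (AOX PPRE/TK or GAL4 chimera); efficacy relative to PPARα or PPARγ reference agonists, from curve fit or at 10 μM.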

db/db mice = experiment: Evaluation of glucose levels in db/db mice; format: in vivo; conditions: Mus musculus, 168 h, 30 mg/kg oral gavage daily for 7 days, 100% = glucose not different from lean values, read-out: Glucose Normalisation
Protocol: Five week old male diabetic (db/db) mice [C57BlKs/j-m+/+ Lepr(db), Jackson Laboratory, Bar Harbor, Me.] or lean littermates (db+) were housed 6 per cage (10″×20″×8″ with aspen chip bedding) with food (Purina 5015) and water available at all times. After an acclimation period of 2 weeks, animals were individually identified by ear notches, weighed, and bled via the tail vein for determination of initial glucose levels. Blood was collected (100 μl) from unfasted animals by wrapping each mouse in a towel, cutting the tip of the tail with a scalpel, and milking blood from the tail into a heparinized capillary tube (Fisher) balanced on the edge of the bench. Sample was discharged into a heparinized microtainer with gel separator (VWR) and retained on ice. Plasma was obtained after centrifugation at 4° C. and glucose measured immediately. Remaining plasma was frozen until the completion of the experiment, when glucose and triglycerides were assayed in all samples. Animals were grouped based on initial glucose levels and body weights. Beginning the following morning, mice were dosed daily by oral gavage for 7 days using a 20 gauge, 1½″ curved disposable feeding needle. Treatments were test compounds (30 mg/kg), a positive control agent (30 mg/kg) or vehicle [1% carboxymethylcellulose (w/v)/0.25% Tween80 (w/v); 0.3 ml/mouse]. On day 7, mice were weighed and bled (tail vein) 3 hours after dosing. Twenty-four hours after the 7th dose (i.e., day 8), animals were bled again (tail vein). Samples obtained from conscious animals on days 0, 7 and 8 were assayed for glucose. After the 24 hour bleed, animals were weighed and dosed for the final time. Three hours after dosing on day 8, animals were anesthetized by inhalation of isoflurane and blood obtained via cardiac puncture (0.5-0.7 ml). Whole blood was transferred to serum separator tubes, chilled on ice and permitted to clot. Serum was obtained after centrifugation at 4° C. and frozen until analysis for compound levels. After sacrifice by cervical dislocation, the liver, heart and epididymal fat pads were excised and weighed.
The animals dosed with vehicle had average triglycerides values of 170-230 mg/dl, which were reduced by the positive PPARγ control (70-120 mg/dl with a mean reduction of 50%). Male db/db mice were hyperglycemic (average glucose of 680-730 mg/dl on the 7th day of treatment), while lean animals had average glucose levels between 190-230 mg/dl.
Glucose was measured […] using commercially purchased reagents (Sigma #315-500). According to the manufacturers, the procedures were modified from published work (McGowan, M. W., Artiss, J. D., Strandbergh, D. R. & Zak, B. Clin Chem, 20:470-5 (1974) and Keston, A. Specific colorimetric enzymatic analytical reagents for glucose. Abstract of papers 129th Meeting ACS, 31C (1956).); and depend on the release of a mole of hydrogen peroxide for each mole of analyte, coupled with a color reaction first described by Trinder (Trinder, P. Determination of glucose in blood using glucose oxidase with an alternative oxygen acceptor. Ann Clin Biochem, 6:24 (1969)). The absorbance of the dye produced is linearly related to the analyte in the sample. The assays were further modified in our laboratory for use in a 96 well format. Standards (Sigma #339-11, Sigma #16-11, and Sigma #CC0534 for glucose, triglycerides and total cholesterol, respectively), quality control plasma (Sigma # A2034), and samples (2 or 5 μl/well) were measured in duplicate using 200 μl of reagent. An additional aliquot of sample, pipetted to a third well and diluted in 200 μl water, provided a blank for each specimen. Plates were incubated at room temperature (18, 15, and 10 minutes for glucose, triglycerides and total cholesterol, respectively) on a plate shaker (DPC Micormix 5) and absorbance read at 500 nm (glucose and total cholesterol) or 540 nm (triglycerides) on a plate reader (Wallac Victor 1420). […]

Structure (SMILES)	huPPARα CTF Efficacy (huPPARα) [%]	inhibition in vivo at 30 mg/kg (db/db mice) [%]
Cc1cccc(OC(C)(Cc2ccc(OCCc3nc(-c4cccs4)oc3C)cc2)C(=O)O)c1 (stereo not shown) [Example 61, 2-Methyl-3-{4-[2-(5-methyl-2-thiophen-2-yl-oxazol-4-yl)-ethoxy]-phenyl}-2-m-tolyloxy-propionic acid]	52	79
Cc1cccc(OC(C)(Cc2ccc(OCCc3nc(C4CCCCC4)oc3C)cc2)C(=O)O)c1 (stereo not shown) [Example 62, 3-{4-[2-(2-Cyclohexyl-5-methyl-oxazol-4-yl)-ethoxy]-phenyl}-2-methyl-2-m-tolyloxy-propionic acid]	101	79
Cc1oc(-c2cccs2)nc1CCOc1ccc(CC(C)(Oc2ccc(F)cc2)C(=O)O)cc1 (stereo not shown) [Example 64, 2-(4-Fluoro-phenoxy)-2-methyl-3-{4-[2-(5-methyl-2-thiophen-2-yl-oxazol-4-yl)-ethoxy]-phenyl}-propionic acid]	50	97
Cc1oc(C2CCCCC2)nc1CCOc1ccc(CC(C)(Oc2ccc(F)cc2)C(=O)O)cc1 (stereo not shown) [Example 65, 3-{4-[2-(2-Cyclohexyl-5-methyl-oxazol-4-yl)-ethoxy]-phenyl}-2-(4-fluoro-phenoxy)-2-methyl-propionic acid]	46	99
Cc1oc(C2(C)CCCCC2)nc1CCOc1ccc(C[C@](C)(Oc2ccc(F)cc2)C(=O)O)cc1 [Example 67, (S)-2-(4-Fluoro-phenoxy)-2-methyl-3-(4-{2-[5-methyl-2-(1-methyl-cyclohexyl)-oxazol-4-yl]-ethoxy}-phenyl)-propionic acid]	34	96
Cc1oc(-c2cccs2)nc1CCOc1ccc(CC(C)(Oc2cccc(C(F)(F)F)c2)C(=O)O)cc1 (stereo not shown) [Example 71, 2-Methyl-3-{4-[2-(5-methyl-2-thiophen-2-yl-oxazol-4-yl)-ethoxy]-phenyl}-2-(3-trifluoromethyl-phenoxy)-propionic acid]	142	97
COc1cccc(OC(C)(Cc2ccc(OCCc3nc(C4CCCCC4)oc3C)cc2)C(=O)O)c1 (stereo not shown) [Example 76, 3-{4-[2-(2-Cyclohexyl-5-methyl-oxazol-4-yl)-ethoxy]-phenyl}-2-(3-methoxy-phenoxy)-2-methyl-propionic acid]	63	97
Cc1oc(-c2ccccc2)nc1CCOc1ccc(CC(C)(Oc2ccc3c(c2)OCO3)C(=O)O)cc1 (stereo not shown) [Example 78, 2-(Benzo[1,3]dioxol-5-yloxy)-2-methyl-3-{4-[2-(5-methyl-2-phenyl-oxazol-4-yl)-ethoxy]-phenyl}-propionic acid]	52	86
Cc1oc(C2CCCCC2)nc1CCOc1ccc(CC(C)(Oc2ccc3c(c2)OCO3)C(=O)O)cc1 (stereo not shown) [Example 80, 2-(Benzo[1,3]dioxol-5-yloxy)-3-{4-[2-(2-cyclohexyl-5-methyl-oxazol-4-yl)-ethoxy]-phenyl}-2-methyl-propionic acid]	84	83
Cc1oc(CCc2ccccc2)nc1CCOc1ccc(C[C@](C)(Oc2ccccc2)C(=O)O)cc1 [Example 86, (S)-2-Methyl-3-{4-[2-(5-methyl-2-phenethyl-oxazol-4-yl)-ethoxy]-phenyl}-2-phenoxy-propionic acid]	24	92
Cc1oc(-c2ccccc2)nc1CCCc1ccc(CC(C)(Oc2ccccc2)C(=O)O)s1 (stereo not shown) [Example 91, 2-Methyl-3-{5-[3-(5-methyl-2-phenyl-oxazol-4-yl)-propyl]-thiophen-2-yl}-2-phenoxy-propionic acid]	47	71
